Series [1] is described as follows: Hygroscopy: water content over storage time. It is filed as physicochemical. The text has this:
This compound is hygroscopic. It uptakes water during time.

Series [2] can be described thus: Stability studies according to ICH (purity on anhydrous substance over time). It is filed as physicochemical. Particulars: for purity on anhydrous substance: specifications 98.0-102.0%; for degradation observed (in words): up to 6 months. Here is the method:
Stability studies have been performed according to ICH.
Similar results were obtained for the 3 months sample at 30° C./65% relative humidity:
Stability has been assessed under ICH conditions.

Series [3] is described as follows: Degradation on drying (main impurity over drying time). In kind it is physicochemical.
Assay in series [4]: as above
It is filed as physicochemical. Particulars: for Main impurity: drying at 60° C. The procedure: Drying was not complete at 60° C. over 24 hours.

A further series deals with histamine H3 (Homo sapiens, UniProt Q9Y5N1). Particulars: among the H3 ligands disclosed in WO 2006/117609; cited from earlier work.
[5] abbreviates: 40° C./75% relative humidity, 0 months.
Setting [6] is: 40° C./75% relative humidity, 1 month.
The mark [7] stands for this setting: 40° C./75% relative humidity, 3 months.
Where [8] appears, read: 40° C./75% relative humidity, 6 months.

The structures appear in SMILES notation. Structures can show the parent of a compound that is named as a salt. Where two headings read alike, the source gives them in different places.

Sequence of histamine H3 (Q9Y5N1 whole entry): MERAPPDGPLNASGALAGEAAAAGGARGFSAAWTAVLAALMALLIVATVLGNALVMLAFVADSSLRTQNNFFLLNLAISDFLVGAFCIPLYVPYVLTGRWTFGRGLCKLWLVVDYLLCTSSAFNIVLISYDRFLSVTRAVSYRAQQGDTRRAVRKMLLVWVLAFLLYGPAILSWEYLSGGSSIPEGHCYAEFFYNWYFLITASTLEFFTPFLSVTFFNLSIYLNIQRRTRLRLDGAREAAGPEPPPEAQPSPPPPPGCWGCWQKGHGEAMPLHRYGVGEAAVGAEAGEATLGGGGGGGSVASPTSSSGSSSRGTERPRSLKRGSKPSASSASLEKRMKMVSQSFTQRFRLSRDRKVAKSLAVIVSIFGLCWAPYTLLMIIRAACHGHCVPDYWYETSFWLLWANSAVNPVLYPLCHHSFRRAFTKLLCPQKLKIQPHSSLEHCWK

On to `C[C@H]1CCCN(CCCOc2ccc(-c3cc[n+]([O-])cc3)cc2)C1` [Example 1, (3S)-4-{4-[3-(3-methylpiperidin-1-yl)propoxy]phenyl}pyridine 1-oxide, dihydrochloride, tetrahydrate], for which, in series [1], the “hygroscopicity (in words)” value is on record as “not hygroscopic”. Moreover, the water content in series [1] (setting [5]) was found to be 16 % in weight; in series [1] (setting [6]), 16 % in weight; in series [1] (setting [7]), 15 % in weight; in series [1] (setting [8]), 16 % in weight; in series [1] (40° C./75% relative humidity, 12 months), 15 % in weight. Also, the “water content modification (in words)” value in series [1] (40° C./75% relative humidity, up to 12 months) was “no water content modification is observed”. In addition, the “purity on anhydrous substance” value is 99.6 in series [2] (setting [5]), 100.3 in series [2] (setting [6]), 99.7 in series [2] (setting [7]) and 100.3 in series [2] (setting [8]). In addition, the “degradation observed (in words)” value in series [2] (40° C./75% relative humidity) is listed as “no degradation is observed”.

For the molecule `C[C@H]1CCCN(CCCOc2ccc(-c3cc[n+]([O-])cc3)cc2)C1` [Example 52 of WO 2006/117609, (3S)-4-{4-[3-(3-methylpiperidin-1-yl)propoxy]phenyl}pyridine 1-oxide, dihydrochloride], the “outcome of drying (in words)” value in series [3] (drying at 80° C. or 100° C., complete removal of water) is given as “some decomposition occurred”. In addition, the Main impurity is 0.08% in series [3] (drying at 80° C., 0 hr); 0.11% in series [3] (drying at 80° C., 8 hr); 0.12% in series [3] (drying at 80° C., 16 hr); 0.14% in series [3] (drying at 80° C., 24 hr); 0.08% in series [3] (drying at 100° C., 0 hr); 0.32% in series [3] (drying at 100° C., 8 hr). Besides, the Main impurity in series [3] (drying at 100° C., 16 hr) is 0.44%; in series [4] (0 hr) it was 0.08%; in series [4] (8 hr) it was 0.08%; in series [4] (12 hr), 0.08%; in series [4] (24 hr), 0.10%. Besides, the water content in series [1] (batch stored under Good Manufacturing Practice, 0 months) was determined as 1 % in weight; in series [1] (batch stored under Good Manufacturing Practice, 6 months) it was 2 % in weight; in series [1] (batch stored under Good Manufacturing Practice, 11 months) it was 4 % in weight. The “hygroscopicity (in words)” value in series [1] (dihydrochloride) is “hygroscopic”; in series [1] (listed as dihydrochloride salt, dihydrochloride), “too hygroscopic”. The “completeness of drying (in words)” value in series [4] (drying at 60° C. over 24 hours) is reported as “not complete”. Also, the “purity on anhydrous substance” value in series [2] (30° C./65% relative humidity, 0 months) is listed as 100.2; in series [2] (30° C./65% relative humidity, 3 months), 98.4; in series [2] (40° C./75% relative humidity, 0 months, dihydrochloride), 100.2; in series [2] (40° C./75% relative humidity, 1 month, dihydrochloride) it was 100.8; in series [2] (40° C./75% relative humidity, 3 months, dihydrochloride), 98.2; in series [2] (40° C./75% relative humidity, 6 months, dihydrochloride), 98.4. The “degradation observed (in words)” value in series [2] (40° C./75% relative humidity, dihydrochloride) was “some degradation is observed”. This molecule yielded a loss of purity in series [2] (within six months, 40° C./75% relative humidity) of 2%.

With `C[C@H]1CCCN(CCCOc2ccc(-c3cc[n+]([O-])cc3)cc2)C1` [(3S)-4-{4-[3-(3-methylpiperidin-1-yl)propoxy]phenyl}pyridine 1-oxide], the “potency as H3 ligand (in words)” value on histamine H3 is reported as “very potent”.
